Laboratory results as given in patent US9695155B2, “Herbicidal substituted pyrimidinyloxy benzene compounds” (E. I. DU PONT DE NEMOURS AND COMPANY, priority 2013, dated 2017).

How the values were obtained:
morningglory [1] = assay: Test A preemergence; assay type: in vivo, Ipomoea spp.; conditions: for Morningglory plant response rating (0 to 100 scale): 125 g ai/ha; for Morningglory plant response rating: 500 g ai/ha, 0 to 100 scale where 0 is no effect and 100 is complete control
Outline: (§1)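 Compounds in non-phytotoxic solvent with surfactant applied as soil spray preemergence, or postemergence to plants 2-10 cm at one- to two-leaf stage, in loam/sand. After approximately 10 days in greenhouse, injury rated visually versus untreated controls, 0 (no effect) to 100 (complete control).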

giant foxtail [2] = assay: Test A preemergence; assay type: in vivo, Setaria faberii; conditions: for Foxtail, Giant plant response rating (0 to 100 scale): 125 g ai/ha; for Foxtail, Giant plant response rating: 500 g ai/ha, 0 to 100 scale where 0 is no effect and 100 is complete control
Outline: as §1

pigweed [3] = assay: Test A postemergence; assay type: in vivo, Amaranthus retroflexus
Outline: as §1

pigweed [4] = assay: Test A preemergence; assay type: in vivo, Amaranthus retroflexus; conditions: for Pigweed plant response rating (0 to 100 scale): 125 g ai/ha; for Pigweed plant response rating: 500 g ai/ha, 0 to 100 scale where 0 is no effect and 100 is complete control
Outline: as §1

barnyardgrass [5] = assay: Test B flooded paddy test; assay type: in vivo, Echinochloa crus-galli; conditions: Flood, 250 g ai/ha; 0 to 100 scale where 0 is no effect and 100 is complete control
Outline: (§2)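 Compound added straight to paddy water, with pots kept flooded 3 cm above soil, on plants grown to the 2-leaf stage. Visual scoring 0-100 (100 = complete control) against untreated controls after 13 to 15 greenhouse days.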

corn [6] = assay: Test A preemergence; assay type: in vivo, Zea mays; conditions: for Corn plant response rating (0 to 100 scale): 125 g ai/ha; for Corn plant response rating: 500 g ai/ha, 0 to 100 scale where 0 is no effect and 100 is complete control
Outline: as §1

barnyardgrass [7] = assay: Test A preemergence; assay type: in vivo, Echinochloa crus-galli; conditions: for Barnyardgrass plant response rating (0 to 100 scale, 0 is no effect, 100 is complete control): 125 g ai/ha; for Barnyardgrass plant response rating: 500 g ai/ha, 0 to 100 scale where 0 is no effect and 100 is complete control
Outline: as §1

giant foxtail [8] = assay: Test A postemergence; assay type: in vivo, Setaria faberii
Outline: as §1

large (Lg) crabgrass [9] = assay: Test A preemergence; assay type: in vivo, Digitaria sanguinalis; conditions: for Crabgrass, Large plant response rating (0 to 100 scale): 125 g ai/ha; for Crabgrass, Large plant response rating: 500 g ai/ha, 0 to 100 scale where 0 is no effect and 100 is complete control
Outline: as §1

Heteranthera limosa = assay: Test B flooded paddy test; assay type: in vivo; conditions: Flood, 250 g ai/ha; 0 to 100 scale where 0 is no effect and 100 is complete control
Outline: as §2

large (Lg) crabgrass [10] = assay: Test A postemergence; assay type: in vivo, Digitaria sanguinalis
Outline: as §1

wheat [11] = assay: Test A preemergence; assay type: in vivo, Triticum aestivum; conditions: for Wheat plant response rating (0 to 100 scale): 125 g ai/ha; for Wheat plant response rating: 500 g ai/ha, 0 to 100 scale where 0 is no effect and 100 is complete control
Outline: as §1

rice = assay: Test B flooded paddy test; assay type: in vivo, Oryza sativa; conditions: Flood, 250 g ai/ha; 0 to 100 scale where 0 is no effect and 100 is complete control
Outline: as §2

sedge, umbrella = assay: Test B flooded paddy test; assay type: in vivo, Cyperus difformis; conditions: Flood, 250 g ai/ha; 0 to 100 scale where 0 is no effect and 100 is complete control
Outline: as §2

wheat [12] = assay: Test A postemergence; assay type: in vivo, Triticum aestivum
Outline: as §1

morningglory [13] = assay: Test A postemergence; assay type: in vivo, Ipomoea spp.
Outline: as §1

barnyardgrass [14] = assay: Test A postemergence; assay type: in vivo, Echinochloa crus-galli
Outline: as §1

velvetleaf [15] = assay: Test A preemergence; assay type: in vivo, Abutilon theophrasti; conditions: for Velvetleaf plant response rating (0 to 100 scale): 125 g ai/ha; for Velvetleaf plant response rating: 500 g ai/ha, 0 to 100 scale where 0 is no effect and 100 is complete control
Outline: as §1

corn [16] = assay: Test A postemergence; assay type: in vivo, Zea mays
Outline: as §1

velvetleaf [17] = assay: Test A postemergence; assay type: in vivo, Abutilon theophrasti
Outline: as §1

[18] = 125 g ai/ha, 0 to 100 scale, 0 no effect, 100 complete control
[19] = 500 g ai/ha, 0 to 100 scale where 0 is no effect and 100 is complete control

SMILES | Morningglory plant response rating (0 to 100 scale) (morningglory [1]) | Morningglory plant response rating (morningglory [1]) | Foxtail, Giant plant response rating (0 to 100 scale) (giant foxtail [2]) | Foxtail, Giant plant response rating (giant foxtail [2]) | Plant response rating, Pigweed (pigweed [3]; [18]) | Plant response rating, Pigweed (pigweed [3]; [19]) | Pigweed plant response rating (0 to 100 scale) (pigweed [4]) | Pigweed plant response rating (pigweed [4]) | Plant response rating, Barnyardgrass (barnyardgrass [5]) | Corn plant response rating (0 to 100 scale) (corn [6]) | Corn plant response rating (corn [6]) | Barnyardgrass plant response rating (0 to 100 scale, 0 is no effect, 100 is complete control) (barnyardgrass [7]) | Barnyardgrass plant response rating (barnyardgrass [7]) | Plant response rating, Foxtail, Giant (giant foxtail [8]; [18]) | Plant response rating, Foxtail, Giant (giant foxtail [8]; [19]) | Crabgrass, Large plant response rating (0 to 100 scale) (large (Lg) crabgrass [9]) | Crabgrass, Large plant response rating (large (Lg) crabgrass [9]) | Plant response rating, Ducksalad (Heteranthera limosa) | Plant response rating, Crabgrass, Large (large (Lg) crabgrass [10]; [18]) | Plant response rating, Crabgrass, Large (large (Lg) crabgrass [10]; [19]) | other results
Clc1cnc(Oc2cccc(-c3cnoc3)c2-n2cc(Br)cn2)nc1 [Compound 291] | 0 | 0 | 20 | 80 | 30 | 70 | 60 | 90 | 0 | 0 | 0 | 0 | 50 | 0 | 50 | 50 | 90 | 0 | 10 | 60 | Wheat plant response rating (0 to 100 scale) (wheat [11]): 0; Wheat plant response rating (wheat [11]): 0; Plant response rating, Rice (rice): 0; Plant response rating, Sedge, Umbrella (sedge, umbrella): 0; Plant response rating, Wheat (wheat [12]; [18]): 0; Plant response rating, Wheat (wheat [12]; [19]): 0; Plant response rating, Morningglory (morningglory [13]; [18]): 30; Plant response rating, Morningglory (morningglory [13]; [19]): 40; Plant response rating, Barnyardgrass (barnyardgrass [14]; [18]): 0; Plant response rating, Barnyardgrass (barnyardgrass [14]; [19]): 40; Velvetleaf plant response rating (0 to 100 scale) (velvetleaf [15]): 40; Velvetleaf plant response rating (velvetleaf [15]): 60; Plant response rating, Corn (corn [16]; [18]): 0; Plant response rating, Corn (corn [16]; [19]): 10; Plant response rating, Velvetleaf (velvetleaf [17]; [18]): 50; Plant response rating, Velvetleaf (velvetleaf [17]; [19]): 60
CCOC(=O)c1cnn(-c2c(C#N)cccc2Oc2ncc(Br)cn2)c1 [Compound 294] | 0 | 0 | 30 | 70 | 60 | 90 | 100 | 100 | 0 | 0 | 0 | 0 | 20 | 10 | 50 | 30 | 60 | 0 | 0 | 50 | Wheat plant response rating (0 to 100 scale) (wheat [11]): 0; Wheat plant response rating (wheat [11]): 0; Plant response rating, Rice (rice): 0; Plant response rating, Sedge, Umbrella (sedge, umbrella): 0; Plant response rating, Wheat (wheat [12]; [18]): 0; Plant response rating, Wheat (wheat [12]; [19]): 40; Plant response rating, Morningglory (morningglory [13]; [18]): 20; Plant response rating, Morningglory (morningglory [13]; [19]): 30; Plant response rating, Barnyardgrass (barnyardgrass [14]; [18]): 20; Plant response rating, Barnyardgrass (barnyardgrass [14]; [19]): 60; Velvetleaf plant response rating (0 to 100 scale) (velvetleaf [15]): 10; Velvetleaf plant response rating (velvetleaf [15]): 70; Plant response rating, Corn (corn [16]; [18]): 0; Plant response rating, Corn (corn [16]; [19]): 40; Plant response rating, Velvetleaf (velvetleaf [17]; [18]): 50; Plant response rating, Velvetleaf (velvetleaf [17]; [19]): 60
NN=Cc1cccc(Oc2ncc(Cl)cn2)c1-n1cc(Cl)cn1 [Compound 295] | 0 | 0 | 0 | 0 | 40 | 70 | 20 | 60 | 0 | 0 | 0 | 0 | 0 | 0 | 0 | 0 | 0 | 0 | 0 | 0 | Wheat plant response rating (0 to 100 scale) (wheat [11]): 0; Wheat plant response rating (wheat [11]): 0; Plant response rating, Rice (rice): 0; Plant response rating, Sedge, Umbrella (sedge, umbrella): 0; Plant response rating, Wheat (wheat [12]; [18]): 0; Plant response rating, Wheat (wheat [12]; [19]): 0; Plant response rating, Morningglory (morningglory [13]; [18]): 40; Plant response rating, Morningglory (morningglory [13]; [19]): 40; Plant response rating, Barnyardgrass (barnyardgrass [14]; [18]): 0; Plant response rating, Barnyardgrass (barnyardgrass [14]; [19]): 0; Velvetleaf plant response rating (0 to 100 scale) (velvetleaf [15]): 0; Velvetleaf plant response rating (velvetleaf [15]): 0; Plant response rating, Corn (corn [16]; [18]): 0; Plant response rating, Corn (corn [16]; [19]): 0; Plant response rating, Velvetleaf (velvetleaf [17]; [18]): 30; Plant response rating, Velvetleaf (velvetleaf [17]; [19]): 30
